The target of the test is human α7 nAChR (Homo sapiens (Human), UniProt P36544). Kind of test: Automated patch-clamp electrophysiology functional assay (Assay A). Conditions: IonFlux HT whole-cell population patch, HEK cells expressing human α7/RIC-3, 40 μM acetylcholine. The test is classed as cell-based. The protocol: The α7 nAChR positive allosteric modulator (PAM) activity of the present compounds may be tested using assays known in the art. The α7 nAChR PAMs described herein have activities in an automated patch-clamp electrophysiology functional assay as described in the examples. The assay was performed using the IonFlux HT in a whole-cell, population patch configuration. See Golden et al. Assay Drug Dev. Technol. (2011) 9:608-619. The compounds were assessed for their ability to modulate the function of the human α7 nAChR stably expressed in a HEK cell line both in the presence, and in the absence of the natural α7 agonist acetylcholine. By performing a series of such measurements at different concentrations, the effective concentration of the α7 nAChR PAMs (EC50) was determined. See Spencer et al. Assay Drug Dev. Technol. (2012) 10:313-324.
Direct activation of α7 (agonism), and potentiation of acetylcholine-evoked α7 currents was determined as follows:
Automated Patch-Clamp Electrophysiology Functional Assay (Assay A)
Automated patch-clamp electrophysiology was performed using the IonFluxHT (Fluxion Biosciences Inc., San Francisco, CA) in the whole-cell, population patch configuration. Test compounds were assessed for their ability to modulate the function of the α7 nicotinic acetylcholine receptor both in the presence, and in the absence of the natural α7 agonist acetylcholine. A HEK cell line stably expressing both human RIC-3 and human α7 (PrecisION hnAChR α7/RIC-3, Eurofins Pharma, St. Charles, MO) was cultured in 175 cm^2 triple-layer tissue culture flasks to no more than 90% confluency in DMEM/F-12 growth media supplemented with 10% heat-inactivated fetal bovine serum, 1% non-essential amino acids, 0.625 μg/mL Puromycin, and 400 μg/mL Geneticin. Immediately prior to assay, cells were detached by first aspirating growth media, rinsing with Dulbecco's phosphate buffered saline, and then adding 10 mL of Accutase (Innovative Cell Technologies, San Diego, CA) to the flask and then incubating at 37° C. for 5 minutes. Detached cells were then recovered by the addition of 40 mL of CHO-serum-free media supplemented with 25 mM HEPES, and rocked gently in a 50 mL conical tube for 20 minutes prior to patch-clamp assay. After recovery, cells were pelleted by centrifugation at 1,000 RPM for 1 minute in a compact bench top centrifuge; recovery media was aspirated and cells were resuspended in external recording solution (150 mM NaCl, 5 mM KCl, 2 mM CaCl2), 1 mM MgCl2, 10 mM HEPES, 12 mM dextrose) to a density of 5.0×10^6 cells/mL. The cell suspension was added to the cell inlet wells on an IonFlux HT population patch plate which had previously been rinsed and primed with deionized H2O. Test compounds were serially diluted in DMSO and then resuspended to the final test concentration in external recording solution, with, or without 40 μM acetylcholine added to the external recording solution; test compounds were then transferred to the IonFlux HT population patch plate. Internal recording solution (110 mM TrisPO4, 28 mM TrisBase, 0.1 mM CaCl2), 2 mM MgCl2, 11 mM EGTA, 4 mM MgATP) was added to the internal recording solution inlet wells on the IonFlux HT patch plate previously loaded with cells and test compounds, and the plate loaded into the IonFlux HT instrument. A protocol was executed on the IonFlux HT to trap the cells, break into the cells, and establish the whole-cell recording configuration; cells were voltage-clamped at a holding potential of −60 mV for the duration of the experiment, all experiments were conducted at room temperature, and the IonFlux HT injection pressure was 8 psi for solution applications. Upon establishing the whole-cell configuration, external recording solution was perfused into the recording chambers for 120 seconds and then 40 μM acetylcholine was applied for 1 second and immediately washed off with external recording solution for 60 seconds. […]
Background: The patch-clamp technique gives a direct electrical read-out from membranes.

Each structure is given as a SMILES string.

Chain of human α7 nAChR (P36544 23-502): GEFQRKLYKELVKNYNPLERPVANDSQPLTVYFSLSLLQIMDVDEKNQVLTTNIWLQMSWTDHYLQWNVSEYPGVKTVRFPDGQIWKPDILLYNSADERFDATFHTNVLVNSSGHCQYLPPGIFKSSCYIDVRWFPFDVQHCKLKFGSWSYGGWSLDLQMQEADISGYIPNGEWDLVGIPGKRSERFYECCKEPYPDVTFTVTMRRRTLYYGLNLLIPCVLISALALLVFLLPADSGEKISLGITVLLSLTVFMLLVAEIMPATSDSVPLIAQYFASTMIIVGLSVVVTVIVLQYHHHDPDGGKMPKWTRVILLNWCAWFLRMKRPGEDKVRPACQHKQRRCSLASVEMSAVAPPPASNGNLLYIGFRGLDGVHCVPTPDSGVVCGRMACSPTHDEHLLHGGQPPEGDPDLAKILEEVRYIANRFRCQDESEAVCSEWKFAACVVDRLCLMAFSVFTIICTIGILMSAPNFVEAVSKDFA

A word on the EC50: it is the concentration that produces a half-maximal response. Turning to `CCOc1ccc([C@H](COC)NC(=O)C2C3Oc4cc(OC)ccc4C32)cc1` (stereo partly drawn) [Example B17, exo-N-[(1R)-1-(4-ethoxyphenyl)-2-methoxyethyl]-4-methoxy-1a,6b-dihydro-1H-cyclopropa[b][1]benzofuran-1-carboxamide], the EC50 by setting is: (electrophysiology EC50 values) 0.63 µM; (potency class) 0.5 to 5 µM. On to `CCOc1ccc([C@H](COC)NC(=O)C2C3Oc4cccc(Br)c4C32)cc1` (stereo partly drawn) [Example B18, exo-6-bromo-N-[(1R)-1-(4-ethoxyphenyl)-2-methoxyethyl]-1a,6b-dihydro-1H-cyclopropa[b][1]benzofuran-1-carboxamide], for which the EC50 was 1 µM (electrophysiology EC50 values) and 0.5 to 5 µM (potency class). As for `CCOc1ccc([C@H](COC)NC(=O)C2C3Oc4cccc(Br)c4C32)cc1` (stereo partly drawn) [Example B19, exo-6-bromo-N-[(1R)-1-(4-ethoxyphenyl)-2-methoxyethyl]-1a,6b-dihydro-1H-cyclopropa[b][1]benzofuran-1-carboxamide], the EC50 is 0.072 µM (electrophysiology EC50 values) and not above 0.1 µM (potency class).

Consider `O=C(N[C@H]1COCc2ccc(F)cc21)C1C2Oc3ccc(F)cc3C21` (stereo partly drawn) [Example C1, exo-5-fluoro-N-[(4R)-6-fluoro-3,4-dihydro-1H-2-benzopyran-4-yl]-1a,6b-dihydro-1H-cyclopropa[b][1]benzofuran-1-carboxamide], for which the EC50 is, setting by setting: (electrophysiology EC50 values) 4.8 µM; (potency class) 0.5 to 5 µM. Regarding `O=C(N[C@@H](CO)C1CCCCC1)C1C2Sc3ccccc3C21` (stereo partly drawn) [Example C2, exo-N-[(1R)-1-cyclohexyl-2-hydroxyethyl]-1a,6b-dihydro-1H-cyclopropa[b][1]benzothiophene-1-carboxamide], the EC50 by setting is: (electrophysiology EC50 values) 2.3 µM; (potency class) 0.5 to 5 µM.

For `CCOc1ccc(C2(NC(=O)C3C4Oc5ccc(F)cc5C43)CCC2)cn1` (stereo not drawn) [Example C3, exo-N-[1-(6-ethoxypyridin-3-yl)cyclobutyl]-5-fluoro-1a,6b-dihydro-1H-cyclopropa[b][1]benzofuran-1-carboxamide], the EC50 by setting is: (electrophysiology EC50 values) 5.6 µM; (potency class) 5 to 50 µM.

`COc1cc2c(cc1OC)[C@@H](NC(=O)C1C3Oc4ccc(F)cc4C31)COC2` (stereo partly drawn) [Example C4, exo-N-[(4R)-6,7-dimethoxy-3,4-dihydro-1H-2-benzopyran-4-yl]-5-fluoro-1a,6b-dihydro-11H-cyclopropa[b][1]benzofuran-1-carboxamide]: the EC50 (potency class) was 5 to 50 µM. On to `CCOc1ccc([C@@H](NC(=O)C2C3Oc4ccc(F)cc4C32)C(F)F)cn1` (stereo partly drawn) [Example C5, exo-N-[(1R)-1-(6-ethoxypyridin-3-yl)-2,2-difluoroethyl]-5-fluoro-1a,6b-dihydro-1H-cyclopropa[b][1]benzofuran-1-carboxamide], for which the EC50 (electrophysiology EC50 values) worked out at 1.4 µM and the EC50 (potency class) is 0.5 to 5 µM. The like results for `O=C(N[C@H]1CCOc2cc(F)ccc21)C1C2Oc3ccc(F)cc3C21` (stereo partly drawn) [Example C6, exo-5-fluoro-N-[(4S)-7-fluoro-3,4-dihydro-2H-1-benzopyran-4-yl]-1a,6b-dihydro-1H-cyclopropa[b][1]benzofuran-1-carboxamide] were, in that order, 0.86 µM and 0.5 to 5 µM. Turning to `O=C(N[C@H]1CCOc2cc(F)c(F)cc21)C1C2Oc3ccc(F)cc3C21` (stereo partly drawn) [Example C7, exo-N-[(4S)-6,7-difluoro-3,4-dihydro-2H-1-benzopyran-4-yl]-5-fluoro-1a,6b-dihydro-1H-cyclopropa[b][1]benzofuran-1-carboxamide], the EC50 (electrophysiology EC50 values) was 1.1 µM and the EC50 (potency class) was in the range of 0.5 to 5 µM.

With `COc1ccc2c(c1)OCC2NC(=O)C1C2Oc3ccc(F)cc3C21` (stereo not drawn) [Example C8, exo-5-fluoro-N-(6-methoxy-2,3-dihydro-1-benzofuran-3-yl)-1a,6b-dihydro-1H-cyclopropa[b][1]benzofuran-1-carboxamide], the concentration for a half-maximal effect (EC50) is 0.81 µM (electrophysiology EC50 values) and 0.5 to 5 µM (potency class). The matching figures for `CCOc1ccc([C@@H](NC(=O)C2C3Oc4ccc(F)cc4C32)C(F)F)cn1` (stereo partly drawn) [Example C9, exo-N-[(1R)-1-(6-ethoxypyridin-3-yl)-2,2-difluoroethyl]-5-fluoro-1a,6b-dihydro-1H-cyclopropa[b][1]benzofuran-1-carboxamide]: 1.1 µM and 0.5 to 5 µM. As to `O=C(NCCc1ccccc1)C1C2Oc3ccc(F)cc3C21` (stereo not drawn) [Example C11, exo-5-fluoro-N-(2-phenylethyl)-1a,6b-dihydro-1H-cyclopropa[b][1]benzofuran-1-carboxamide], the EC50 is, setting by setting: (electrophysiology EC50 values) 2.2 µM; (potency class) 0.5 to 5 µM. With `CC(NC(=O)C1C2Oc3ccc(F)cc3C21)c1cccs1` (stereo not drawn) [Example C12, exo-5-fluoro-N-[1-(thiophen-2-yl)ethyl]-1a,6b-dihydro-1H-cyclopropa[b][1]benzofuran-1-carboxamide], the EC50 by setting is: (electrophysiology EC50 values) 1.2 µM; (potency class) 0.5 to 5 µM. On to `O=C(NCc1cc(Cl)ccc1F)C1C2Oc3ccc(F)cc3C21` (stereo not drawn) [Example C14, exo-N-[(5-chloro-2-fluorophenyl)methyl]-5-fluoro-1a,6b-dihydro-1H-cyclopropa[b][1]benzofuran-1-carboxamide], for which the EC50 is, setting by setting: (electrophysiology EC50 values) 0.81 µM; (potency class) 0.5 to 5 µM. As for `O=C(NCc1ccc(Cl)c(F)c1)C1C2Oc3ccc(F)cc3C21` (stereo not drawn) [Example C15, exo-N-[(4-chloro-3-fluorophenyl)methyl]-5-fluoro-1a,6b-dihydro-1H-cyclopropa[b][1]benzofuran-1-carboxamide], the EC50 by setting is: (electrophysiology EC50 values) 5.6 µM; (potency class) 5 to 50 µM. As for `CCC(NC(=O)C1C2Oc3ccc(F)cc3C21)c1ccccn1` (stereo not drawn) [Example C16, 2-{1-[(exo-5-fluoro-1a,6b-dihydro-1H-cyclopropa[b][1]benzofuran-1-carbonyl)amino]propyl}pyridine], the EC50 (potency class) was in the range of 0.5 to 5 µM. As for `O=C(NCc1cccs1)C1C2Oc3ccc(F)cc3C21` (stereo not drawn) [Example C17, exo-5-fluoro-N-[(thiophen-2-yl)methyl]-1a,6b-dihydro-1H-cyclopropa[b][1]benzofuran-1-carboxamide], the EC50 was 0.97 µM (electrophysiology EC50 values) and 0.5 to 5 µM (potency class). The matching figures for `O=C(NCc1cccc(N2CCCC2)n1)C1C2Oc3ccc(F)cc3C21` (stereo not drawn) [Example C18, 2-{[(exo-5-fluoro-1a,6b-dihydro-1H-cyclopropa[b][1]benzofuran-1-carbonyl)amino]methyl}-6-(pyrrolidin-1-yl)pyridine]: 1.4 µM and 0.5 to 5 µM. Turning to `O=C(NCc1cc(C(F)F)nc(C(F)F)c1)C1C2Oc3ccc(F)cc3C21` (stereo not drawn) [Example C19, exo-N-{[2,6-bis(difluoromethyl)pyridin-4-yl]methyl}-5-fluoro-1a,6b-dihydro-1H-cyclopropa[b][1]benzofuran-1-carboxamide], the EC50 by setting is: (electrophysiology EC50 values) 0.6 µM; (potency class) 0.5 to 5 µM.

Take `CC(NC(=O)C1C2Oc3ccc(F)cc3C21)c1cc2ccccc2o1` (stereo not drawn) [Example C20, exo-N-[1-(1-benzofuran-2-yl)ethyl]-5-fluoro-1a,6b-dihydro-1H-cyclopropa[b][1]benzofuran-1-carboxamide]: the EC50 is, setting by setting: (electrophysiology EC50 values) 2.3 µM; (potency class) 0.5 to 5 µM. `O=C(NCc1cccc(I)c1)C1C2Oc3ccc(F)cc3C21` (stereo not drawn) [Example C21, exo-5-fluoro-N-[(3-iodophenyl)methyl]-1a,6b-dihydro-1H-cyclopropa[b][1]benzofuran-1-carboxamide]: the EC50 (electrophysiology EC50 values) came to 2.1 µM and the EC50 (potency class) was in the range of 0.5 to 5 µM.

Regarding `O=C(NCc1cc(F)ccc1F)C1C2Oc3ccc(F)cc3C21` (stereo not drawn) [Example C22, exo-N-[(2,5-difluorophenyl)methyl]-5-fluoro-1a,6b-dihydro-1H-cyclopropa[b][1]benzofuran-1-carboxamide], the EC50 runs as follows: (electrophysiology EC50 values) 3.4 µM; (potency class) 0.5 to 5 µM.
